How the values were obtained:
Experiment in all cases: Histone peptide microarray
Type in all cases: binding, human
[1] = tested on: PHF23; details: GST-tagged PHF23; sheet Array Heatmap; each array performed twice, total n = 4
Method in brief: (§1)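 GST-tagged PHD finger readers were expressed, purified and applied at 0.5 μM to a microarray of 293 synthetic histone peptides carrying single or combinatorial PTMs, using an optimized protocol. Binding signals are averages with standard deviation from 4 replicates.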

[2] = tested on: SP140L; details: GST-tagged SP140L; sheet Array Heatmap; each array performed twice, total n = 4
Method in brief: as §1

[3] = tested on: BPTF (PB); details: GST-tagged BPTF (PB = PHD + Bromodomain); sheet Array Heatmap; each array performed twice, total n = 4
Method in brief: as §1

[4] = tested on: PHF21A; details: GST-tagged PHF21A; sheet Array Heatmap; each array performed twice, total n = 4
Method in brief: as §1

[5] = tested on: AIRE (PP); details: GST-tagged AIRE (PP); sheet Array Heatmap; each array performed twice, total n = 4
Method in brief: as §1

[6] = tested on: CHD5 (PPCC); details: GST-tagged CHD5 (PPCC = Dual PHD + Dual Chromodomain); sheet Array Heatmap; each array performed twice, total n = 4
Method in brief: as §1

[7] = tested on: KDM5B (1); details: GST-tagged KDM5B (1); sheet Array Heatmap; each array performed twice, total n = 4
Method in brief: as §1

[8] = tested on: ING5; details: GST-tagged ING5; sheet Array Heatmap; each array performed twice, total n = 4
Method in brief: as §1

[9] = tested on: ING4; details: GST-tagged ING4; sheet Array Heatmap; each array performed twice, total n = 4
Method in brief: as §1

[10] = tested on: ING1; details: GST-tagged ING1; sheet Array Heatmap; each array performed twice, total n = 4
Method in brief: as §1

[11] = tested on: DPF2 (PPC2W2); details: GST-tagged DPF2 (PPC2W2 = Dual PHD + C2W2-type Zn-finger); sheet Array Heatmap; each array performed twice, total n = 4
Method in brief: as §1

[12] = tested on: DIDO1; details: GST-tagged DIDO1; sheet Array Heatmap; each array performed twice, total n = 4
Method in brief: as §1

[13] = tested on: KDM5A (3); details: GST-tagged KDM5A (3); sheet Array Heatmap; each array performed twice, total n = 4
Method in brief: as §1

[14] = tested on: PHF13; details: GST-tagged PHF13; sheet Array Heatmap; each array performed twice, total n = 4
Method in brief: as §1

[15] = tested on: TAF3; details: GST-tagged TAF3; sheet Array Heatmap; each array performed twice, total n = 4
Method in brief: as §1

[16] = tested on: PHF8; details: GST-tagged PHF8; sheet Array Heatmap; each array performed twice, total n = 4
Method in brief: as §1

[17] = tested on: KDM4C (TTP); details: GST-tagged KDM4C (TTP = Tandem Tudor domain + PHD); sheet Array Heatmap; each array performed twice, total n = 4
Method in brief: as §1

[18] = tested on: BAZ2B; details: GST-tagged BAZ2B; sheet Array Heatmap; each array performed twice, total n = 4
Method in brief: as §1

[19] = tested on: MORC3 (CW); details: GST-tagged MORC3 (CW = CW-type Zn-finger); sheet Array Heatmap; each array performed twice, total n = 4
Method in brief: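 GST-tagged PHD readers, 0.5 μM, probed on a microarray of 293 synthetic histone peptides carrying single or combinatorial PTMs (optimized Petell protocol). Signals are averaged over 4 replicates and expressed as relative binding.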

[20] = tested on: KDM7A; details: GST-tagged KDM7A; sheet Array Heatmap; each array performed twice, total n = 4
Method in brief: as §1

[21] = tested on: CHD5 (PCC); details: GST-tagged CHD5 (PCC = PHD + Dual Chromodomain); sheet Array Heatmap; each array performed twice, total n = 4
Method in brief: as §1

[22] = tested on: RAG2; details: GST-tagged RAG2; sheet Array Heatmap; each array performed twice, total n = 4
Method in brief: as §1

[23] = tested on: ING3; details: GST-tagged ING3; sheet Array Heatmap; each array performed twice, total n = 4
Method in brief: as §1

[24] = tested on: PHF2; details: GST-tagged PHF2; sheet Array Heatmap; each array performed twice, total n = 4
Method in brief: as §1

[25] = tested on: KDM5B (3); details: GST-tagged KDM5B (3); sheet Array Heatmap; each array performed twice, total n = 4
Method in brief: as §1

[26] = tested on: CHD4 (PPCC); details: for Array Heatmap signal (histone peptide microarray): GST-tagged CHD4 (PPCC = Dual PHD + Dual Chromodomain), sheet Array Heatmap, each array performed twice, total n = 4
Method in brief: as §1

Q: What does the source list for H3K9me3: H3 1-20 [Peptide H3K9me3]?
A: Array Heatmap signal (histone peptide microarray) [1]: 0.5665; Array Heatmap signal (histone peptide microarray) [2]: 0.3305; Array Heatmap signal (histone peptide microarray) [3]: 0.3464; Array Heatmap signal (histone peptide microarray) [4]: 0.4617; Array Heatmap signal (histone peptide microarray) [5]: 0.4645; Array Heatmap signal (histone peptide microarray) [6]: 0.5526; Array Heatmap signal (histone peptide microarray) [7]: 0.6712; Array Heatmap signal (histone peptide microarray) [8]: 0.3535; Array Heatmap signal (histone peptide microarray) [9]: 0.4493; Array Heatmap signal (histone peptide microarray) [10]: 0.5591; Array Heatmap signal (histone peptide microarray) [11]: 0.7027; Array Heatmap signal (histone peptide microarray) [12]: 0.7537; Array Heatmap signal (histone peptide microarray) [13]: 0.563; Array Heatmap signal (histone peptide microarray) [14]: 0.6291; Array Heatmap signal (histone peptide microarray) [15]: 0.2799; Array Heatmap signal (histone peptide microarray) [16]: 0.3233; Array Heatmap signal (histone peptide microarray) [17]: 0.4665; Array Heatmap signal (histone peptide microarray) [18]: 0.4699; Array Heatmap signal (histone peptide microarray) [19]: 0.4553; Array Heatmap signal (histone peptide microarray) [20]: 0.3458; Array Heatmap signal (histone peptide microarray) [21]: 0.824; Array Heatmap signal (histone peptide microarray) [22]: 0.2542; Array Heatmap signal (histone peptide microarray) [23]: 0.491; Array Heatmap signal (histone peptide microarray) [24]: 0.5168; Array Heatmap signal (histone peptide microarray) [25]: 0.5156; Array Heatmap signal (histone peptide microarray) [26]: 0.5917; relative binding ([26]; peptide microarray, reader 0.5 μM, n = 4): no difference in binding

Q: H3S10p: H3 1-20 [Peptide H3S10p] was tested. Which “Array Heatmap signal (histone peptide microarray)” value (shortened to “Array Heatmap signal”) [1] did it give?
A: 0.5413

Q: And the “Array Heatmap signal” value [2]?
A: 0.3768

Q: What about the “Array Heatmap signal” value [3] of the same substance?
A: 0.3684

Q: What about the “Array Heatmap signal” value [4] of the same substance?
A: 0.5054

Q: What about the “Array Heatmap signal” value [5] of the same substance?
A: 0.7118

Q: And the “Array Heatmap signal” value [6]?
A: 0.5995

Q: What about the “Array Heatmap signal” value [7] of the same substance?
A: 0.6981

Q: What about the “Array Heatmap signal” value [8] of the same substance?
A: 0.3966

Q: And the “Array Heatmap signal” value [9]?
A: 0.4889

Q: And the “Array Heatmap signal” value [10]?
A: 0.5325

Q: What about the “Array Heatmap signal” value [11] of the same substance?
A: 0.7013

Q: And the “Array Heatmap signal” value [12]?
A: 0.6622

Q: And the “Array Heatmap signal” value [13]?
A: 0.4717

Q: What about the “Array Heatmap signal” value [14] of the same substance?
A: 0.646

Q: And the “Array Heatmap signal” value [15]?
A: 0.3504

Q: And the “Array Heatmap signal” value [16]?
A: 0.4129

Q: And the “Array Heatmap signal” value [17]?
A: 0.5402

Q: And the “Array Heatmap signal” value [18]?
A: 0.5109

Q: What about the “Array Heatmap signal” value [19] of the same substance?
A: 0.4872

Q: What about the “Array Heatmap signal” value [20] of the same substance?
A: 0.4084

Q: And the “Array Heatmap signal” value [21]?
A: 0.8638

Q: What about the “Array Heatmap signal” value [22] of the same substance?
A: 0.2741

Q: What about the “Array Heatmap signal” value [23] of the same substance?
A: 0.4878

Q: And the “Array Heatmap signal” value [24]?
A: 0.4863

Q: What about the “Array Heatmap signal” value [25] of the same substance?
A: 0.5217

Q: And the “Array Heatmap signal” value [26]?
A: 0.6003

From PMC6979384, “Characterization of the plant homeodomain (PHD) reader family for their histone tail interactions” (Epigenetics & Chromatin, 2020)
